Measurements published in patent US20120316105A1, “Polymyxin Derivates Useful As Antibacterial Agents” (priority 2011, published 2012).
Where two headings read alike, the source gives them in different places. Numbered stars: 1 amine (or outer) side, 2 acyl side, 3 side chain; on linkers, the order of the positions; unused ones are H or OH. Bridge positions count the residues as written; N and C are the ends. Square brackets hold non-standard residues; d marks the D form. Peptide text beside a SMILES is read from it. * marks the point of attachment. Benzoyl(4-OPh) = O=C(c1ccc(Oc2ccccc2)cc1)*; X25 = O=C(c1ccc(Cl)c(-c2ccccn2)c1)*; X37 = COc1cc(C(=O)*)cc(-c2ccccc2)n1; X10 = COc1nc(-c2ccccc2)ccc1C(=O)*; X24 = COc1ccc(-c2ccccc2)cc1C(=O)*; X36 = c1ccc(-c2cccc(N*)c2)cc1; X14 = CC(C)c1cccc(C(=O)*)c1; Dab = NCC[C@H](N)C(=O)O; Dap = NC[C@H](N)C(=O)O; CO = O=C([*:1])[*:2]

Tests used:
[1] = test system: PA-1646, polymyxin-resistant clinical isolate of Pseudomonas aeruginosa; format: cell-based
Experimental: (§1) Minimum bactericidal concentration (MBC, mg/L), minimum inhibitory concentration (MIC, mg/L), and human renal proximal tubule epithelial cell line cytotoxicity concentration 50% (hRPTEC, TC50, micromolar) for compounds of Formula I are listed in Table 2. The compounds of Formula I were tested as the corresponding trifluoroacetate salt except for Example 1 which was tested as the sulfate salt. For Table 2 below: PMB=polymyxin B as the sulfate salt (Bedford Laboratories, pharmaceutical grade); PMB1=polymyxin B1 as the trifluoroacetate salt; Nona=polymyxin B nonapeptide as the trifluoroacetate salt. PMB1 and Nona were prepared using the solid phase methodology described in the experimental section herein.
(§2) The in vitro antibacterial activity of compounds of Formula I was evaluated by MIC testing according to Clinical and Laboratory Standards Institute (CLSI). See: Clinical and Laboratory Standards Institute. Methods for Dilution Antimicrobial Susceptibility Tests for Bacteria that Grow Aerobically; Approved Standard-Eighth Edition. CLSI document M7-A8 [ISBN 1-56238-689-1]. Clinical and Laboratory Standards Institute, 940 West Valley Road, Suite 1400, Wayne, Pa. 19087-1898 USA, 2006; also Clinical and Laboratory Standards Institute. Performance Standards for Antimicrobial Susceptibility Testing; Twentieth Informational Supplement. CLSI document M100-S20 [ISBN 1-56238-716-2]. Clinical and Laboratory Standards Institute. Methods for Determining Bactericidal Activity of Antimicrobial Agents; Approved Guideline. CLSI document M26-A (ISBN 1-56238-384-1). CLSI, 940 West Valley Road, Suite 1400, Wayne, Pa. 19087-1898 USA, 1999.
PA-1646 is a polymyxin-resistant clinical isolate of Pseudomonas aeruginosa obtained from JMI labs (www.jmilabs.com);

[2] = test system: AB-1649, polymyxin-resistant clinical isolate of Acinetobacter baumannii; format: cell-based
Experimental: as §1, §2
(§3) The MIC determination is a standard laboratory method for evaluating the antibacterial activity of a compound. The MIC represents the lowest drug concentration that inhibits visible growth of bacteria following overnight incubation. […] Typically, the drug concentration range is broken down into 2-fold increments (e.g. 0.06 mg/L, 0.12 mg/L, 0.25 mg/L, 0.50 mg/L, 1.0 mg/L, etc.) and the various drug concentrations are all individually incubated overnight with approximately the same number of bacteria. The MIC is then determined by visually inspecting the drug effect at each concentration, and identifying the lowest drug concentration that has inhibited bacterial growth as compared to the drug free control. Typically, bacteria continue to grow at drug concentrations lower than the MIC and don't grow at concentrations at and above the MIC.
(§4) The MIC values described in Table 2 below were derived from assays wherein each test compound was evaluated in duplicate. In cases where the duplicate values varied by 0-2-fold, the lower of the two values was reported below. Generally speaking, if the duplicate values varied by more than 2-fold, the assay was considered non-valid and was repeated until the variation between duplicate runs was ≦2-fold. In line with the CLSI guidelines referred to above, both control organisms and reference compounds were utilized in each MIC assay to provide proper quality control. MIC values generated with these control organisms and reference compounds were required to fall within a defined range for the assay to be considered valid and be included herein. Those skilled in the art will recognize that MIC values can and do vary from experiment to experiment. Generally speaking, it should be recognized that MIC values often vary +/−2-fold from experiment to experiment. While a single MIC is reported for each compound and each microorganism, the reader should not conclude that each compound was only tested once. Several of the compounds were subjected to multiple tests. The data reported in Table 2 is reflective of the compounds relative activity and different MICs may have been generated on these occasions in line with the guidelines described above.
(§5) The following bacterial strains were used in these MIC determinations: […]

[3] = test system: AB-3167, clinical isolate of Acinetobacter baumannii; format: cell-based
Experimental: as §1, §2, §3, §4, §5

[4] = test system: PA-1646, polymyxin-resistant clinical isolate of Pseudomonas aeruginosa; format: cell-based; remark: listed apart in the source
Experimental: as §1, §2, §3, §4, §5

[5] = test system: Pseudomonas aeruginosa strain PA01; format: cell-based
Experimental: as §1, §2, §3, §4, §5

[6] = test system: AB-1649, polymyxin-resistant clinical isolate of Acinetobacter baumannii; format: cell-based; remark: listed apart in the source
Experimental: as §1, §2
AB-1649 is a polymyxin-resistant clinical isolate of Acinetobacter baumannii obtained from JMI labs (www.jmilabs.com);

[7] = test system: EC-1, mouse virulent strain of Escherichia coli; format: cell-based; details: E. coli EC-1; overnight incubation, lower of duplicate values; trifluoroacetate salt (Example 1 and PMB sulfate)
Experimental: as §1, §2, §3, §4
The following bacterial strains were used in these MIC determinations:
EC-1 is a mouse virulent strain of Escherichia coli.

[8] = Cytotoxicity assay (LDH release), hRPTEC; format: cell-based, human; details: human
Experimental: as §1
Human Renal Proximal Tubule Epithelial cells (hRPTEC) were obtained from Lonza (Walkersville, Md., USA) and cultured in REGM (Renal Epithelial Cell Basal Medium supplemented with human epithelial growth factor, hydrocortisone, epinephrine, insulin, triiodothyronine, transferrin, gentamycin/amphotericin-B, and fetal bovine serum). The hRPTEC cells were seeded into 96-well plates and incubated at 37° C. in 5% CO2. Following a growth period of 72 hours, cells were treated with compounds at 100, 67, 44, 30, 20 and 13 micromolar for 24 hours at 37° C. in 5% CO2. The cell supernatant was then harvested for determination of LDH (lactate dehydrogenase) production. The Cytotoxicity Detection Kit from Roche was used for the measurement of LDH activity released from damaged cells. The Toxic Concentration 50% (TC50, micromolar) values were determined for each compound and compared to the control compounds (polymyxin B was used as a positive control and polymyxin B nonapepetide was used as negative control).

[9] = PA-1646, polymyxin-resistant clinical isolate of
[10] = AB-1649, polymyxin-resistant clinical isolate of

| SMILES | PA-1646 MBC [1, 9] | AB-1649 MIC [2, 10] | AB-3167 MIC ([3]; AB-3167, clinical isolate of) | PA-1646 MIC [4, 9] | PA01 MIC ([5]; strain) | AB-1649 MBC [6, 10] | EC-1 MIC [7] | CC50 at 24 h [8] | PA-1646 MBC ([1]; P. aeruginosa PA-1646, tested as trifluoroacetate salt (Example 1 and PMB as sulfate salt)) | AB-1649 MIC ([2]; A. baumannii AB-1649, overnight incubation, lower of duplicate values, trifluoroacetate salt (Example 1 and PMB sulfate)) | AB-3167 MIC ([3]; A. baumannii AB-3167, overnight incubation, lower of duplicate values, trifluoroacetate salt (Example 1 and PMB sulfate)) | PA-1646 MIC ([4]; P. aeruginosa PA-1646, overnight incubation, lower of duplicate values, trifluoroacetate salt (Example 1 and PMB sulfate)) | PA01 MIC ([5]; P. aeruginosa PA01, overnight incubation, lower of duplicate values, trifluoroacetate salt (Example 1 and PMB sulfate)) | AB-1649 MBC ([6]; A. baumannii AB-1649, tested as trifluoroacetate salt (Example 1 and PMB as sulfate salt)) | CC50 at 24 h ([8]; Human Renal Proximal Tubule Epithelial cells (hRPTEC), hRPTEC, 24 hours treatment, LDH release, Toxic Concentration 50%, read-out: hRPTEC TC50) |
| --- | --- | --- | --- | --- | --- | --- | --- | --- | --- | --- | --- | --- | --- | --- | --- |
| CC(C)C[C@@H]1NC(=O)[C@@H](Cc2ccccc2)NC(=O)[C@H](CCN)NC(=O)[C@@H](NC(=O)[C@H](CN)NC(=O)[C@@H](NC(=O)[C@H](CCN)NC(=O)c2cccc(C(C)C)c2)[C@@H](C)O)CCNC(=O)[C@H]([C@@H](C)O)NC(=O)[C@H](CCN)NC(=O)[C@H](CCN)NC1=O [Example 25] (X14-[Dab]T[Dap][Dab][Dab][dF]L[Dab][Dab]T; lactam 4-C) | 16 µg/mL | 4 µg/mL | 0.25 µg/mL | 4 µg/mL | 1 µg/mL | 4 µg/mL | 0.25 µg/mL | 88 µM | – | – | – | – | – | – | – |
| COc1nc(-c2ccccc2)ccc1C(=O)N[C@@H](CCN)C(=O)N[C@H](C(=O)N[C@@H](CN)C(=O)N[C@H]1CCNC(=O)[C@H]([C@@H](C)O)NC(=O)[C@H](CCN)NC(=O)[C@H](CCN)NC(=O)[C@H](CC(C)C)NC(=O)[C@@H](Cc2ccccc2)NC(=O)[C@H](CCN)NC1=O)[C@@H](C)O [Example 38] (X10-[Dab]T[Dap][Dab][Dab][dF]L[Dab][Dab]T; lactam 4-C) | 1 µg/mL | 4 µg/mL | 0.25 µg/mL | 1 µg/mL | 1 µg/mL | 4 µg/mL | 0.25 µg/mL | 16 µM | – | – | – | – | – | – | – |
| CC(C)C[C@@H]1NC(=O)[C@@H](Cc2ccccc2)NC(=O)[C@H](CCN)NC(=O)[C@@H](NC(=O)[C@H](CN)NC(=O)[C@@H](NC(=O)[C@H](CCN)NC(=O)c2ccc(Oc3ccccc3)cc2)[C@@H](C)O)CCNC(=O)[C@H]([C@@H](C)O)NC(=O)[C@H](CCN)NC(=O)[C@H](CCN)NC1=O [Example 42] ({Benzoyl(4-OPh)}-[Dab]T[Dap][Dab][Dab][dF]L[Dab][Dab]T; lactam 4-C) | – | – | – | – | – | – | 0.25 µg/mL | – | 4 µg/mL | 1 µg/mL | 0.25 µg/mL | 1 µg/mL | 0.5 µg/mL | 1 µg/mL | 27 µM |
| COc1cc(C(=O)N[C@@H](CCN)C(=O)N[C@H](C(=O)N[C@@H](CN)C(=O)N[C@H]2CCNC(=O)[C@H]([C@@H](C)O)NC(=O)[C@H](CCN)NC(=O)[C@H](CCN)NC(=O)[C@H](CC(C)C)NC(=O)[C@@H](Cc3ccccc3)NC(=O)[C@H](CCN)NC2=O)[C@@H](C)O)cc(-c2ccccc2)n1 [Example 35] (X37-[Dab]T[Dap][Dab][Dab][dF]L[Dab][Dab]T; lactam 4-C) | 1 µg/mL | 4 µg/mL | 0.5 µg/mL | 1 µg/mL | 0.5 µg/mL | 4 µg/mL | 0.25 µg/mL | 24 µM | – | – | – | – | – | – | – |
| CC(C)C[C@@H]1NC(=O)[C@@H](Cc2ccccc2)NC(=O)[C@H](CCN)NC(=O)[C@@H](NC(=O)[C@H](CN)NC(=O)[C@@H](NC(=O)[C@H](CCN)NC(=O)c2ccc(Cl)c(-c3ccccn3)c2)[C@@H](C)O)CCNC(=O)[C@H]([C@@H](C)O)NC(=O)[C@H](CCN)NC(=O)[C@H](CCN)NC1=O [Example 28] (X25-[Dab]T[Dap][Dab][Dab][dF]L[Dab][Dab]T; lactam 4-C) | 16 µg/mL | 4 µg/mL | 0.25 µg/mL | 4 µg/mL | 1 µg/mL | 4 µg/mL | 0.25 µg/mL | 72 µM | – | – | – | – | – | – | – |
| CC(C)C[C@@H]1NC(=O)[C@@H](Cc2ccccc2)NC(=O)[C@H](CCN)NC(=O)[C@@H](NC(=O)[C@H](CN)NC(=O)[C@@H](NC(=O)[C@H](CCN)NC(=O)Nc2cccc(-c3ccccc3)c2)[C@@H](C)O)CCNC(=O)[C@H]([C@@H](C)O)NC(=O)[C@H](CCN)NC(=O)[C@H](CCN)NC1=O [Example 40] ({X36-CO}-[Dab]T[Dap][Dab][Dab][dF]L[Dab][Dab]T; lactam 4-C) | 1 µg/mL | 4 µg/mL | 0.25 µg/mL | 1 µg/mL | 0.5 µg/mL | 4 µg/mL | 0.25 µg/mL | 15 µM | – | – | – | – | – | – | – |
| COc1ccc(-c2ccccc2)cc1C(=O)N[C@@H](CCN)C(=O)N[C@H](C(=O)N[C@@H](CN)C(=O)N[C@H]1CCNC(=O)[C@H]([C@@H](C)O)NC(=O)[C@H](CCN)NC(=O)[C@H](CCN)NC(=O)[C@H](CC(C)C)NC(=O)[C@@H](Cc2ccccc2)NC(=O)[C@H](CCN)NC1=O)[C@@H](C)O [Example 36] (X24-[Dab]T[Dap][Dab][Dab][dF]L[Dab][Dab]T; lactam 4-C) | 2 µg/mL | 4 µg/mL | 0.25 µg/mL | 2 µg/mL | 0.5 µg/mL | 4 µg/mL | 0.5 µg/mL | 19 µM | – | – | – | – | – | – | – |
